This is an account of results in paper doi:10.1101/2024.08.19.608619, “Discovery of potent SARS-CoV-2 nsp3 macrodomain inhibitors uncovers lack of translation to cellular antiviral response” (bioRxiv, 2024).

A short description of data set [1]: in vitro. The note with it: human, hela-ace2 cells, 50.0.
In data set [2] the test system is HeLa-ACE2 cells. The note with it: for perc_max_measured: highest measured response of the dose series; for perc_min_measured: lowest measured response of the dose series.
Data set [3] can be described thus: In vitro kinetic solubility. The note with it: In vitro kinetic solubility, ph 7.4.
Data set [4] in a line: LogD. The conditions noted are these: pH 7.4; In vitro LogD.
Data set [5] can be described thus: Hepatic microsomal stability, HLM. Format: in vitro ADME, human. The conditions noted are these: In vitro human liver microsomal stability; for perc_remaining_no_cofactor: no cofactor.
Data set [6] has as its system SARS-CoV-2, isolate USA-WA1/2020. Kind of data set: microbe, parasite or virus in culture. Format: cell-based. The conditions noted are these: HeLa-ACE2 SARS-CoV-2 antiviral effect without P-gp inhibitor; for perc_max_measured: maximum measured response of dose series; for perc_min_measured: minimum measured response of dose series; for EC50: read-out: ec50; for EC90: read-out: ec90.

A short description of data set [7]: Hepatic microsomal stability, MLM. The conditions noted are these: In vitro mouse liver microsomal stability; for perc_remaining_no_cofactor: no cofactor. Format: in vitro ADME.
Data set [8] is described as follows: Permeability Papp (AB) MDR1/MDCKII. The conditions noted are these: for papp_a_to_b_mean / papp_b_to_a_mean / efflux_ratio / perc_recovery_a_to_b_mean / perc_recovery_b_to_a_mean: In vitro MDR1-MDCKII permeability; for papp_a_to_b_mean: A to B; for papp_b_to_a_mean: B to A; for perc_recovery_a_to_b_mean / perc_recovery_a_to_b_inhibitor_mean: recovery A to B; for perc_recovery_b_to_a_mean / perc_recovery_b_to_a_inhibitor_mean: recovery B to A; for perc_recovery_a_to_b_inhibitor_mean / perc_recovery_b_to_a_inhibitor_mean: MDR1-MDCKII, with inhibitor Verapamil.

Where [9] appears, read: protocol HeLa-ACE2 cytotoxicity.

Converted amounts (≈) assume the structure as drawn. “And” between values parts separate entries of the source, which are not always exact repeats. Equal entries are not always repeated. Where two headings read alike, the source gives them in different places.

One may read the CC50 as the concentration at which the toxic effect on the cells reaches its halfway point. A high value points to better tolerance by the cells. For orientation: EC50 means the concentration giving half of the maximal effect. By EC90 is commonly meant the point of the concentration-response curve where the effect stands at 90%.

As for `CC(C)[C@H](Nc1ncnc2[nH]c(-c3cnn(C)c3C#N)cc12)c1ccc2c(n1)NC(=O)CO2` (single isomer, unassigned) [ASAP-0011177], in data set [1], the 50% cytotoxic concentration (CC50) at 24 h was > 20 µM. For the same compound, in data set [2] (HeLa-ACE2 cytotoxicity), the half-maximal cytotoxic concentration (CC50) is > 20 µM, the cc10 was > 20.0 µM, the perc_max_measured was 109.886% and the perc_min_measured is 55.576%. Further, the solubility_mean in data set [3] worked out at 28 µM (≈ 12.4 µg/mL). In addition, the logd in data set [4] is reported as 3.7. Besides, in data set [5], the clint stood at 137.0 µL/min/mg, the perc_remaining worked out at 10.0%, the t_half is 12.2 min and the perc_remaining_no_cofactor was found to be 92.0%. In data set [6], the perc_max_measured turned out to be 70.604%, the perc_min_measured was determined as 3.388%, the EC50 was 858 nM and the EC90 is > 20 µM. Moreover, in data set [7], the clint was determined as 131.0 µL/min/mg, the perc_remaining stood at 12.0%, the t_half is recorded as 12.8 min and the perc_remaining_no_cofactor is 85.0%. In data set [8] (mean), this compound yielded a papp_a_to_b_mean of 9.35 ×10⁻⁶ cm/s and a perc_recovery_a_to_b_mean of 80.2%. In data set [8] (no inhibitor), this compound returned a papp_a_to_b_mean of 0.0964 ×10⁻⁶ cm/s, a papp_b_to_a_mean of 6.5 ×10⁻⁶ cm/s, an efflux_ratio of 67.2 and a perc_recovery_a_to_b_mean of 69.4%. The compound also gave a perc_recovery_b_to_a_mean in data set [8] (no inhibitor) of 79.8%. In data set [8], this compound registered a perc_recovery_a_to_b_inhibitor_mean of 78.2% and a perc_recovery_b_to_a_inhibitor_mean of 81.1%.

Regarding `CC(C)[C@@H](Nc1ncnc2[nH]c(-c3cnn(C)c3C#N)cc12)c1ccc2c(n1)NC(=O)CO2` (single isomer, unassigned) [ASAP-0011180], the 50% cytotoxic concentration (CC50) at 24 h in data set [1] was > 20 µM. In data set [2] (HeLa-ACE2 cytotoxicity), the CC50 was > 20 µM, the cc10 is > 20.0 µM, the perc_max_measured came out at 104.887% and the perc_min_measured was determined as 81.763%. This compound also had a solubility_mean in data set [3] of 28 µM (≈ 12.4 µg/mL). In data set [4], this compound yielded a logd of 3.7. In addition, in data set [5], the clint was 51.0 µL/min/mg, the perc_remaining is 43.0%, the t_half is 32.6 min and the perc_remaining_no_cofactor was found to be 98.0%. In data set [6], the perc_max_measured is reported as 122.922%, the perc_min_measured was 8.802%, the EC50 turned out to be 2460 nM and the concentration for an effect of 90% (EC90) was 5.57 µM. Also, in data set [7], the clint came to 189.0 µL/min/mg, the perc_remaining was 5.0%, the t_half is reported as 8.8 min and the perc_remaining_no_cofactor is on record as 92.0%. Moreover, in data set [8] (mean), the papp_a_to_b_mean is 9.64 ×10⁻⁶ cm/s and the perc_recovery_a_to_b_mean is reported as 84.8%.

Consider `CC(C)[C@H](Nc1ncnc2[nH]c(-c3cnn(C)c3)cc12)c1ccc2c(c1)S(=O)(=O)CCC2` (single isomer, unassigned) [ASAP-0012327], for which the 50% cytotoxic concentration (CC50) at 24 h in data set [1] was > 20 µM. In data set [2] (HeLa-ACE2 cytotoxicity), the half-maximal cytotoxic concentration (CC50) was > 20 µM, the cc10 is > 20.0 µM, the perc_max_measured was determined as 100.334% and the perc_min_measured is recorded as 94.258%. The solubility_mean in data set [3] came to 111 µM (≈ 50 µg/mL). The same compound displayed a logd in data set [4] of 2.9. For the same compound, in data set [5], the clint was 169.0 µL/min/mg, the perc_remaining came to 7.0%, the t_half was 9.9 min and the perc_remaining_no_cofactor is reported as 95.0%. Besides, in data set [6], the perc_max_measured was 111.115%, the perc_min_measured is reported as 52.798%, the EC50 is > 20000 nM and the EC90 is > 20 µM. In addition, in data set [7], the clint came out at 255.0 µL/min/mg, the perc_remaining is 1.0%, the t_half came out at 6.5 min and the perc_remaining_no_cofactor came to 98.0%. Moreover, in data set [8] (no inhibitor), the papp_a_to_b_mean was 1.18 ×10⁻⁶ cm/s and the perc_recovery_a_to_b_mean was 65.0%.

For `CC(C)(C)[C@H](Nc1ncnc2[nH]c(-c3cnn(CC(N)=O)c3)cc12)c1ccc2c(c1)OCCO2` (single isomer, unassigned) [ASAP-0012330], in data set [1], the CC50 at 24 h was > 20 µM. In data set [2] (HeLa-ACE2 cytotoxicity), the cytotoxic concentration (CC50) was > 20 µM, the cc10 is > 20.0 µM, the perc_max_measured is 98.779% and the perc_min_measured was 88.572%. This compound showed a solubility_mean in data set [3] of 89 µM (≈ 41.1 µg/mL). Besides, the logd in data set [4] stood at 3.0. In addition, in data set [5], the clint was determined as 153.0 µL/min/mg, the perc_remaining worked out at 9.0%, the t_half came to 10.9 min and the perc_remaining_no_cofactor was found to be 100.0%. In data set [6], the perc_max_measured worked out at 108.484%, the perc_min_measured amounted to 91.129%, the EC50 is > 20000 nM and the EC90 was > 20 µM. Besides, in data set [7], the clint was determined as 44.0 µL/min/mg, the perc_remaining stood at 48.0%, the t_half is reported as 38.3 min and the perc_remaining_no_cofactor is 105.0%. Besides, in data set [8] (no inhibitor), the papp_a_to_b_mean was found to be 0.364 ×10⁻⁶ cm/s and the perc_recovery_a_to_b_mean is 67.4%.

Consider `CNC(=O)c1cccc(-c2cc3c(N[C@H](c4ccc5c(c4)S(=O)(=O)CCC5)C(C)C)ncnc3[nH]2)c1` (single isomer, unassigned) [ASAP-0012338], for which the CC50 at 24 h in data set [1] was > 20 µM. In addition, in data set [2] (setting [9]), the CC50 was > 20 µM, the cc10 was > 20.0 µM, the perc_max_measured is reported as 103.266% and the perc_min_measured stood at 80.243%. Besides, the solubility_mean in data set [3] amounted to 13 µM (≈ 6.55 µg/mL). Further, the logd in data set [4] amounted to 3.8. Further, in data set [5], the clint was 746.0 µL/min/mg, the perc_remaining turned out to be 0.0%, the t_half was 2.2 min and the perc_remaining_no_cofactor was 99.0%. Moreover, in data set [6], the perc_max_measured stood at 112.086%, the perc_min_measured is given as 84.591%, the EC50 was > 20000 nM and the 90% effect concentration (EC90) was > 20 µM. In data set [7], the clint turned out to be 197.0 µL/min/mg, the perc_remaining is recorded as 4.0%, the t_half worked out at 8.5 min and the perc_remaining_no_cofactor was found to be 106.0%. Besides, in data set [8] (no inhibitor), the papp_a_to_b_mean worked out at 0.502 ×10⁻⁶ cm/s and the perc_recovery_a_to_b_mean is 61.5%.

In the case of `CNC(=O)c1cc2c(N[C@@H](c3ccc4c(c3)S(=O)(=O)CCC4)C(C)C)ncnc2[nH]1` (single isomer, unassigned) [ASAP-0012346], in data set [1], the half-maximal cytotoxic concentration (CC50) at 24 h was > 20 µM. Moreover, in data set [2] (setting [9]), the half-maximal cytotoxic concentration (CC50) is > 20 µM, the cc10 is > 20.0 µM, the perc_max_measured came to 108.34% and the perc_min_measured turned out to be 94.319%. Further, the solubility_mean in data set [3] came to 397 µM (≈ 170 µg/mL). In data set [4], this compound came in with a logd of 2.4. In addition, in data set [5], the clint is 682.0 µL/min/mg, the perc_remaining was found to be 0.0%, the t_half was 2.4 min and the perc_remaining_no_cofactor turned out to be 94.0%. Further, in data set [6], the perc_max_measured is on record as 104.869%, the perc_min_measured turned out to be 90.681%, the EC50 is > 20000 nM and the EC90 was > 20 µM. Further, in data set [7], the clint amounted to 23.0 µL/min/mg, the perc_remaining amounted to 69.0%, the t_half came to 71.6 min and the perc_remaining_no_cofactor came to 97.0%. Further, in data set [8] (no inhibitor), the papp_b_to_a_mean is 0.72 ×10⁻⁶ cm/s; the efflux_ratio is recorded as 21.1; the perc_recovery_a_to_b_mean is 74.6% and 66.3%; the perc_recovery_b_to_a_mean was found to be 68.8%. In data set [8], this compound had a perc_recovery_a_to_b_inhibitor_mean of 98.1% and a perc_recovery_b_to_a_inhibitor_mean of 86.6%.

In the case of `CC(C)[C@H](Nc1ncnc2[nH]c(-c3cnn(C)c3C#N)cc12)c1ccc2c(c1)NC(=O)CO2` (single isomer, unassigned) [ASAP-0013255], the CC50 at 24 h in data set [1] is > 20 µM. For the same compound, in data set [2] (HeLa-ACE2 cytotoxicity), the CC50 was > 20 µM, the cc10 is > 20.0 µM, the perc_max_measured amounted to 92.424% and the perc_min_measured is 38.485%. In data set [3], this compound returned a solubility_mean of 26 µM (≈ 11.5 µg/mL). In addition, in data set [4], the logd came to 4.4. Further, in data set [5], the clint was 115.0 µL/min/mg, the perc_remaining was determined as 16.0%, the t_half was 14.6 min and the perc_remaining_no_cofactor turned out to be 101.0%. Further, in data set [6], the perc_max_measured is listed as 72.17%, the perc_min_measured came out at 6.652%, the concentration for a half-maximal effect (EC50) was determined as 1330 nM and the EC90 is > 20 µM. In data set [7], the clint came out at 81.0 µL/min/mg, the perc_remaining is reported as 27.0%, the t_half turned out to be 20.7 min and the perc_remaining_no_cofactor amounted to 96.0%. In data set [8] (mean), the papp_a_to_b_mean was 1.22 ×10⁻⁶ cm/s and the perc_recovery_a_to_b_mean came out at 51.1%.
